For the test, the system named is MCF7/FasR and MCF7/FasR/Bcl-xL cells. The test can be described thus: Bcl-xL dependence of cell death, MTT in MCF7/FasR vs MCF7/FasR/Bcl-xL. It is filed as cell-based, human. The settings on record: complexes: 458 nm irradiation, 10 nM to 1 µM, TNFα 100 ng/mL, 72 h. An excerpt:
To determine the mechanism of cell death, we used MCF7 cells transfected to express the human Fas receptor (FasR) or doubly transfected to express the human Fas receptor and human Bcl-xL [75]. Since MCF7 cells express the TNF receptor endogenously, this allowed the study of both Fas- and TNFα-mediated apoptosis in the same cell model to assess whether cell death was dependent on the Bcl-2 family of mitochondrial proteins such as Bcl-xL. […]
Mitochondrial outer membrane permeabilization (MOMP), which leads to rapid cell death through the release of mitochondrial proteins (including cytochrome c) that activate executioner caspases, is the critical event in intrinsic apoptosis. […] We then assessed whether the cell death induced by our complexes could be abrogated by the overexpression of Bcl-xL.
A tetrazolium-based MTT reagent (3-(4,5-dimethylthiazol-2-yl)-2,5-diphenyltetrazolium bromide) was used to determine cell viability, as previously described. […] After solubilization with 500 μL of lysis buffer (DMSO), formazan was quantified by spectrophotometry with a microplate reader at 570 nm absorbance (ClarioSTAR, BMG LabTech, Champigny-sur-Marne, France). […] All results were calculated from data obtained in at least three independent experiments. […]
Figure 13 Evaluation of apoptotic biomarkers. […] (B) MTT, ATP and GSH assays were evaluated in duplicate samples. […]

On to `CC(C)[n+]1ccn2[c]1[Ir-3]13([c]4ccccc4-c4cccc[n+]41)([c]1ccccc1-c1cccc[n+]13)[c]1n(cc[n+]1C(C)C)C2.F[P-](F)(F)(F)(F)F` [Complex 4a], for which the “effect of Bcl-xL overexpression on loss of cell viability” value was “not affected by Bcl-xL overexpression”.
